The source of these data is patent EP2766361B1, “8-CARBAMOYL-2-(2,3-DISUBSTITUTED PYRID-6-YL)-1,2,3,4-TETRAHYDROISOQUINOLINE DERIVATIVES AS APOPTOSIS-INDUCING AGENTS FOR THE TREATMENT OF CANCER AND IMMUNE AND AUTOIMMUNE DISEASES” (priority 2011, dated 2013).

The term EC50 denotes the midpoint of the concentration-response curve.

This experiment relates to mouse FL5.12 cells transfected with Bcl-xL. The experiment in a line: FL5.12 cellular assay (cell viability, CellTiter-Glo). The settings on record: IL-3-depleted, 3% FBS assay media, 24 hours, read-out: FL5.12 Bcl-xL, -IL3, EC50. The experiment is classed as cell-based. As for the experimental part:
Cell viability was assayed using the CellTiter-Glo assay (Promega Corp., Madison, WI) according to the manufacturer instructions. Individual determinations were the result of duplicate values. […] Table 2. In Vitro Data
A general note: ATP-based viability assays read luminescence as a measure of living cells.
In the case of `Cc1c(-c2ccc(N3CCc4cccc(C(=O)Nc5nc6ccccc6s5)c4C3)nc2C(=O)O)cnn1CC12CC3CC(C)(CC(C)(C3)C1)C2` [Example 32, 6-[8-(1,3-benzothiazol-2-ylcarbamoyl)-3,4-dihydroisoquinolin-2(1H)-yl]-3-(1-{[3,5-dimethyltricyclo[3.3.1.1^3,7]dec-1-yl]methyl}-5-methyl-1H-pyrazol-4-yl)pyridine-2-carboxylic acid], the concentration for a half-maximal effect (EC50) worked out at 1 nM.
Consider `O=C(Nc1nc2ccccc2s1)c1cccc2c1CN(c1ccc(-c3cnn(CC45CC6CC(C4)CC(N4CCS(=O)(=O)CC4)(C6)C5)c3)c(C(=O)O)n1)CC2` [Example 33, 6-[8-(1,3-benzothiazol-2-ylcarbamoyl)-3,4-dihydroisoquinolin-2(1H)-yl]-3-(1-{[3-(1,1-dioxidothiomorpholin-4-yl)tricyclo[3.3.1.1^3,7]dec-1-yl]methyl}-1H-pyrazol-4-yl)pyridine-2-carboxylic acid], for which the half-maximal effective concentration (EC50) was over 1000 nM.
For `Cc1c(-c2ccc(N3CCc4cccc(C(=O)Nc5nc6ccccc6s5)c4C3)nc2C(=O)O)cc(C#N)n1CCC12CC3CC(CC(C3)C1)C2` [Example 34, 6-[8-(1,3-benzothiazol-2-ylcarbamoyl)-3,4-dihydroisoquinolin-2(1H)-yl]-3-{5-cyano-2-methyl-1-[2-(tricyclo[3.3.1.1^3,7]dec-1-yl)ethyl]-1H-pyrrol-3-yl}pyridine-2-carboxylic acid], the EC50 was 150 nM.
The figure for `Cc1c(-c2ccc(N3CCc4cccc(C(=O)Nc5nc6ccccc6s5)c4C3)nc2C(=O)NS(C)(=O)=O)cc(C#N)n1CC12CC3CC(CC(C3)C1)C2` [Example 35, N-(1,3-benzothiazol-2-yl)-2-{5-[5-cyano-2-methyl-1-(tricyclo[3.3.1.1^3,7]dec-1-ylmethyl)-1H-pyrrol-3-yl]-6-[(methylsulfonyl)carbamoyl]pyridin-2-yl}-1,2,3,4-tetrahydroisoquinoline-8-carboxamide] is 1 nM; for `Cc1c(-c2ccc(N3CCc4cccc(C(=O)Nc5nc6ccccc6s5)c4C3)nc2C(=O)NS(=O)(=O)C2CC2)cc(C#N)n1CC12CC3CC(CC(C3)C1)C2` [Example 36, N-(1,3-benzothiazol-2-yl)-2-{5-[5-cyano-2-methyl-1-(tricyclo[3.3.1.1^3,7]dec-1-ylmethyl)-1H-pyrrol-3-yl]-6-[(cyclopropylsulfonyl)carbamoyl]pyridin-2-yl}-1,2,3,4-tetrahydroisoquinoline-8-carboxamide] it is 0.8 nM; for `COC12CC3CC(CC(Cn4ncc(-c5ccc(N6CCc7cccc(C(=O)Nc8nc9ccccc9s8)c7C6)nc5C(=O)NS(C)(=O)=O)c4C)(C3)C1)C2` [Example 37, N-(1,3-benzothiazol-2-yl)-2-{5-(1-{[3-methoxytricyclo[3.3.1.1^3,7]dec-1-yl]methyl}-5-methyl-1H-pyrazol-4-yl)-6-[(methylsulfonyl)carbamoyl]pyridin-2-yl}-1,2,3,4-tetrahydroisoquinoline-8-carboxamide] it is 3 nM.
The value for `COC12CC3(C)CC(C)(CC(Cn4ncc(-c5ccc(N6CCc7cccc(C(=O)Nc8nc9ccccc9s8)c7C6)nc5C(=O)O)c4C)(C3)C1)C2` [Example 38, 6-[8-(1,3-benzothiazol-2-ylcarbamoyl)-3,4-dihydroisoquinolin-2(1H)-yl]-3-(1-{[3-methoxy-5,7-dimethyltricyclo[3.3.1.1^3,7]dec-1-yl]methyl}-5-methyl-1H-pyrazol-4-yl)pyridine-2-carboxylic acid] was 0.1 nM.
The value for `COC12CC3CC(CC(Cn4ncc(-c5ccc(N6CCc7cccc(C(=O)Nc8nc9ccccc9s8)c7C6)nc5C(=O)NS(=O)(=O)N5CCOCC5)c4C)(C3)C1)C2` [Example 39, N-(1,3-benzothiazol-2-yl)-2-{5-(1-{[3-methoxytricyclo[3.3.1.1^3,7]dec-1-yl]methyl}-5-methyl-1 H-pyrazol-4-yl)-6-[(morpholin-4-ylsulfonyl)carbamoyl]pyridin-2-yl}-1,2,3,4-tetrahydroisoquinoline-8-carboxamide] was 0.6 nM; that for `COC12CC3CC(CC(Cn4ncc(-c5ccc(N6CCc7cccc(C(=O)Nc8nc9ccccc9s8)c7C6)nc5C(=O)NS(=O)(=O)C(F)(F)F)c4C)(C3)C1)C2` [Example 40, N-(1,3-benzothiazol-2-yl)-2-[5-(1-{[3-methoxytricyclo[3.3.1.1^3,7]dec-1-yl]methyl}-5-methyl-1H-pyrazol-4-yl)-6-{[(trifluoromethyl)sulfonyl]carbamoyl}pyridin-2-yl]-1,2,3,4-tetrahydroisoquinoline-8-carboxamide] was 47 nM.
On to `COC12CC3CC(CC(Cn4ncc(-c5ccc(N6CCc7cccc(C(=O)Nc8nc9ccccc9s8)c7C6)nc5C(=O)NS(=O)(=O)C5CC5)c4C)(C3)C1)C2` [Example 41], for which the EC50 was found to be 0.4 nM.
Regarding `[2H]C1([2H])c2c(cccc2C(=O)Nc2nc3ccccc3s2)CCN1c1ccc(-c2cnn(CC34CC5CC(CC(C5)C3)C4)c2C)c(C(=O)O)n1` [Example 44, 6-[8-(1,3-benzothiazol-2-ylcarbamoyl)-1,1-dideutero-3,4-dihydroisoquinolin-2(1H)-yl]-3-[5-methyl-1-(tricyclo[3.3.1.1^3,7]dec-1-ylmethyl)-1H-pyrazol-4-yl]pyridine-2-carboxylic acid], the EC50 came out at 0.3 nM.
With `N#Cc1c(NC23CC4CC(CC(C4)C2)C3)cccc1-c1ccc(N2CCc3cccc(C(=O)Nc4nc5ccccc5s4)c3C2)nc1C(=O)O` [Example 47, 6-[8-(1,3-benzothiazol-2-ylcarbamoyl)-3,4-dihydroisoquinolin-2(1H)-yl]-3-{2-cyano-3-[tricyclo[3.3.1.1^3,7]dec-1-ylamino]phenyl}pyridine-2-carboxylic acid], the EC50 is 54 nM.
The value for `N#Cc1c(SC23CC4CC(CC(C4)C2)C3)cccc1-c1ccc(N2CCc3cccc(C(=O)Nc4nc5ccccc5s4)c3C2)nc1C(=O)O` [Example 48, 6-[8-(1,3-benzothiazol-2-ylcarbamoyl)-3,4-dihydroisoquinolin-2(1H)-yl]-3-{2-cyano-3-[tricyclo[3.3.1.1^3,7]dec-1-ylsulfanyl]phenyl}pyridine-2-carboxylic acid] was 8 nM; that for `Cc1c(NC(=O)C23CC4CC(CC(C4)C2)C3)cccc1-c1ccc(N2CCc3cccc(C(=O)Nc4nc5ccccc5s4)c3C2)nc1C(=O)O` [Example 50, 6-[8-(1,3-benzothiazol-2-ylcarbamoyl)-3,4-dihydroisoquinolin-2(1H)-yl]-3-(2-methyl-3-{[tricyclo[3.3.1.1^3,7]dec-1-ylcarbonyl]amino}phenyl)pyridine-2-carboxylic acid] was over 1000 nM; that for `Cc1c(-c2ccc(N3CCc4cccc(C(=O)Nc5nc6ccccc6s5)c4C3)nc2C(=O)O)cccc1S(=O)(=O)NC12CC3CC(CC(C3)C1)C2` [Example 51, 6-[8-(1,3-benzothiazol-2-ylcarbamoyl)-3,4-dihydroisoquinolin-2(1H)-yl]-3-{2-methyl-3-[tricyclo[3.3.1.1^3,7]dec-1-ylsulfamoyl]phenyl}pyridine-2-carboxylic acid] was 164 nM.
In the case of `Cc1c(-c2ccc(N3CCc4cccc(C(=O)Nc5nc6ccccc6s5)c4C3)nc2C(=O)O)cnn1CC12CC3CC(C1)CC(OCC1CCOCC1)(C3)C2` [Example 53, 6-[8-(1,3-benzothiazol-2-ylcarbamoyl)-3,4-dihydroisoquinolin-2(1H)-yl]-3-(5-methyl-1-{[3-(tetrahydro-2H-pyran-4-ylmethoxy)tricyclo[3.3.1.1^3,7]dec-1-yl]methyl}-1H-pyrazol-4-yl)pyridine-2-carboxylic acid], the concentration giving a half-maximal response (EC50) is 4 nM.
The figure for `Cc1c(C(=O)NC23CC4CC(CC(C4)C2)C3)cccc1-c1ccc(N2CCc3cccc(C(=O)Nc4nc5ccccc5s4)c3C2)nc1C(=O)O` [Example 54, 6-[8-(1,3-benzothiazol-2-ylcarbamoyl)-3,4-dihydroisoquinolin-2(1H)-yl]-3-{2-methyl-3-[tricyclo[3.3.1.1^3,7]dec-1-ylcarbamoyl]phenyl}pyridine-2-carboxylic acid] is over 1000 nM.
On to `Cc1c(-c2ccc(N3CCc4cccc(C(=O)Nc5nc6ccccc6s5)c4C3)nc2C(=O)O)cccc1N(C)CC12CC3CC(CC(C3)C1)C2` [Example 55, 6-[8-(1,3-benzothiazol-2-ylcarbamoyl)-3,4-dihydroisoquinolin-2(1H)-yl]-3-(2-methyl-3-{methyl[tricyclo[3.3.1.1^3,7]dec-1-ylmethyl]amino}phenyl)pyridine-2-carboxylic acid], for which the EC50 was 47 nM.
For `COCCC1(Cn2cc(-c3ccc(N4CCc5cccc(C(=O)Nc6nc7ccccc7s6)c5C4)nc3C(=O)O)cn2)C2CC3CC(C2)CC1C3` (stereo not shown) [Example 56, 6-[8-(1,3-benzothiazol-2-ylcarbamoyl)-3,4-dihydroisoquinolin-2(1H)-yl]-3-(1-{[2-(2-methoxyethyl)tricyclo[3.3.1.1^3,7]dec-2-yl]methyl}-1H-pyrazol-4-yl)pyridine-2-carboxylic acid], the EC50 is 17 nM.
The value for `Cc1c(-c2ccc(N3CCc4cccc(C(=O)Nc5nc6ccccc6s5)c4C3)nc2C(=O)O)nnn1CC12CC3CC(CC(C3)C1)C2` [Example 57, 6-[8-(1,3-benzothiazol-2-ylcarbamoyl)-3,4-dihydroisoquinolin-2(1H)-yl]-3-[5-methyl-1-(tricyclo[3.3.1.1^3,7]dec-1-ylmethyl)-1H-1,2,3-triazol-4-yl]pyridine-2-carboxylic acid] was 12 nM; that for `COC12CC3CC(CC(Cn4c(C#N)cc(-c5ccc(N6CCc7cccc(C(=O)Nc8nc9ccccc9s8)c7C6)nc5C(=O)O)c4C)(C3)C1)C2` [Example 58, 6-[8-(1,3-benzothiazol-2-ylcarbamoyl)-3,4-dihydroisoquinolin-2(1H)-yl]-3-(5-cyano-1-{[3-methoxytricyclo[3.3.1.1^3,7]dec-1-yl]methyl}-2-methyl-1H-pyrrol-3-yl)pyridine-2-carboxylic acid] was 0.3 nM.
The value for `N#Cc1c(-c2ccc(N3CCc4cccc(C(=O)Nc5nc6ccccc6s5)c4C3)nc2C(=O)O)cccc1S(=O)(=O)C12CC3CC(CC(C3)C1)C2` [Example 60, 6-[8-(1,3-benzothiazol-2-ylcarbamoyl)-3,4-dihydroisoquinolin-2(1H)-yl]-3-[2-cyano-3-(tricyclo[3.3.1.1^3,7]dec-1-ylsulfonyl)phenyl]pyridine-2-carboxylic acid] was 55 nM.
